From patent US9801872B2, “Pyridinyl and fused pyridinyl triazolone derivatives” (Takeda Pharmaceutical Company Limited, priority 2013, dated 2017)

Molecular target: human BTK (Homo sapiens (Human), UniProt Q06187)
Assay: BTK inhibition: BTK-mediated phosphorylation of FAM-labeled substrate 5-FAM-[…]-NH2 (Caliper LC-3000)
Format: biochemical
Conditions: residues 382 to 659 of human BTK; 60 minutes at room temperature; pIC50 = -log(IC50), IC50 molar
Description: The activity of compounds as BTK inhibitors may be determined by a variety of methods, including in vitro and in vivo methods.
This construct engineers an in-frame translational fusion with the Glutathione-S-Transferase (GST) protein for use in affinity purification. The fusion protein derived from this construct contains a protease recognition sequence to liberate the BTK from the GST affinity tag. High-titer baculoviral stocks, generated using the Bac-to-Bac® system (Invitrogen), are used to express the recombinant protein in Spodoptera frugiperda Sf9 cells in 10 L Wave bags. Recombinant proteins are isolated from cellular extracts by passage over Glutathione Sepharose 4B (GE Healthcare) and the BTK moiety is released from the GST affinity tag by treatment with PreScission protease. The BTK recombinant protein is further purified by size exclusion chromatography (HiLoad 16/60 Superdex 200, GE Healthcare) in a buffer containing 20 mM Hepes (pH 7.4), 50 mM NaCl, 10 mM MgCl2, 0.25 mM TCEP and 0.1 mM EDTA. The purity of the fractions is assessed by SDS PAGE and the peak protein fractions are pooled and concentrated using Amicon Ultra-15 Centrifugal Filter Devices (Millipore).
The inhibitory properties of compounds relative to BTK is determined using a black 384-well-plate format in a buffer which contains 50 mM Hepes, 10 mM NaCl, 10 mM MgCl2, 0.2 mM EDTA, 0.01% Brij35®, 1 mM DTT, and 0.1 mg/mL BSA at pH 7.3. The test compound is prepared in DMSO using 2-fold serial dilutions for 11 data points, which are added to the buffer so that each dilution contains 3% DMSO. […] The reaction mixtures are incubated at room temperature for 60 minutes and then quenched by adding 25 μL of 50 mM EDTA. To quantify the fluorescent-labeled substrate and product following reaction, the test plate is loaded on a Caliper LC-3000, which measures percent of conversion by microfluidic-based separation.
The compounds were tested in accordance with the assay described on page 42 of the specification.

Chain of human BTK (Q06187 382-659): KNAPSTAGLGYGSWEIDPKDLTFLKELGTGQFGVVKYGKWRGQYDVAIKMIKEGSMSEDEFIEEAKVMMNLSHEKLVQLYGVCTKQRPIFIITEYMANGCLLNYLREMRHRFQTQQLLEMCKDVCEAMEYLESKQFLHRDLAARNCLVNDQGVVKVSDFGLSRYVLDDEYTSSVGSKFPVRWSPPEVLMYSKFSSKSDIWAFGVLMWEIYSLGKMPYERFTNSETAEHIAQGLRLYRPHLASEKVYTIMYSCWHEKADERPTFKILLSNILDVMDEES

| SMILES | BTK Inhibition (pIC50) |
| --- | --- |
| C=C(C)C(=O)N1CC[C@H](Oc2nc(-c3n[nH]c(=O)[nH]3)cc3ccccc23)C1 [Example 12, (S)-3-(1-((1-methacryloylpyrrolidin-3-yl)oxy)isoquinolin-3-yl)-1H-1,2,4-triazol-5(4H)-one] | 6.9 |
| C=CC(=O)NC1CCN(c2nc(-c3n[nH]c(=O)[nH]3)cc3ccccc23)C1 (centres unmarked) [Example 4, N-(1-(3-(5-oxo-4,5-dihydro-1H-1,2,4-triazol-3-yl)isoquinolin-1-yl)pyrrolidin-3-yl)acrylamide] | >8.1 |
